From patent publication US9951049B2, “Pyrazole linked benzimidazole conjugates and a process for preparation thereof” (Council of Scientific & Industrial Reseach, priority 2014, dated 2018)

Experiments:
PC-3 = assay: NCI SRB screen, PC-3; conditions: Homo sapiens, PC-3, 48 h, read-out: GI50 values
HL-60(TB) = assay: NCI SRB screen, HL-60(TB); assay type: cell-based; conditions: Homo sapiens, Leukemia, 48 h
COLO-205 = assay: NCI SRB screen, COLO-205; conditions: Homo sapiens, COLO 205, 48 h, read-out: GI50 values
Leukemia cell lines = assay: NCI SRB screen, Leukemia panel average; conditions: Homo sapiens, 48 h, read-out: Log10 GI50 (converted)
T-47D = assay: NCI SRB screen, T-47D; conditions: Homo sapiens, T47D, 48 h, read-out: GI50 values
NCI-H522 = assay: NCI SRB screen, NCI-H522; conditions: Homo sapiens, NCI-H522, 48 h, read-out: GI50 values, Non-small cell lung, NCI-H522
HT29 = assay: NCI SRB screen, HT29; conditions: Homo sapiens, HT-29, 48 h, read-out: GI50 values
OVCAR-4 = assay: NCI SRB screen, OVCAR-4; conditions: Homo sapiens, OVCAR-4, 48 h, read-out: GI50 values
CCRF-CEM = assay: NCI SRB screen, CCRF-CEM; conditions: Homo sapiens, 48 h, read-out: GI50 values
SR = assay: NCI SRB screen, SR; conditions: Homo sapiens, 48 h, read-out: GI50 values
TK-10 = assay: NCI SRB screen, TK-10; conditions: Homo sapiens, TK-10, 48 h, read-out: GI50 values
SF-268 = assay: NCI SRB screen, SF-268; conditions: Homo sapiens, SF-268, 48 h, read-out: GI50 values
A498 = assay: NCI SRB screen, A498; conditions: Homo sapiens, A498, 48 h, read-out: GI50 values
MDA-MB-435 = assay: NCI SRB screen, MDA-MB-435 (Melanoma panel); conditions: Homo sapiens, MDA-MB-435, 48 h, read-out: GI50 values
Breast Cancer cell lines = assay: NCI SRB screen, Breast Cancer panel average; conditions: Homo sapiens, 48 h, read-out: Log10 GI50 (converted)
UO-31 = assay: NCI SRB screen, UO-31; conditions: Homo sapiens, UO-31, 48 h, read-out: GI50 values
NCI-H460 = assay: NCI SRB screen, NCI-H460; conditions: Homo sapiens, NCI-H460, 48 h, read-out: GI50 values
MALME-3M = assay: NCI SRB screen, MALME-3M; conditions: Homo sapiens, 48 h, read-out: GI50 values
786-0 = assay: NCI SRB screen, 786-0; conditions: Homo sapiens, 786-0, 48 h, read-out: GI50 values
MDA-MB-231/ATCC = assay: NCI SRB screen, MDA-MB-231/ATCC; conditions: Homo sapiens, MDA-MB-231, 48 h, read-out: GI50 values
[1] = system: Ovarian cancer cell lines; assay: NCI SRB screen, Ovarian panel average; conditions: Homo sapiens, 48 h, read-out: Log10 GI50 (converted)
RPMI-8226 = assay: NCI SRB screen, RPMI-8226; conditions: Homo sapiens, RPMI-8226, 48 h, read-out: GI50 values
SK-OV-3 = assay: NCI SRB screen, SK-OV-3; conditions: Homo sapiens, SK-OV-3, 48 h, read-out: GI50 values
SK-MEL-28 = assay: NCI SRB screen, SK-MEL-28; conditions: Homo sapiens, SK-MEL-28, 48 h, read-out: GI50 values
NCIH322M = assay: NCI SRB screen, NCIH322M; conditions: Homo sapiens, NCI-H322M, 48 h, read-out: GI50 values
OVCAR-3 = assay: NCI SRB screen, OVCAR-3; conditions: Homo sapiens, OVCAR-3, 48 h, read-out: GI50 values
RXF 393 = assay: NCI SRB screen, RXF 393; conditions: Homo sapiens, RXF 393, 48 h, read-out: GI50 values
HCT-15 = assay: NCI SRB screen, HCT-15; conditions: Homo sapiens, HCT-15, 48 h, read-out: GI50 values
[2] = system: Non-small-cell lung cancer cell lines; assay: NCI SRB screen, Non-small-cell lung panel average; conditions: Homo sapiens, 48 h, read-out: Log10 GI50 (converted)
SN12C = assay: NCI SRB screen, SN12C; conditions: Homo sapiens, 48 h, read-out: GI50 values
SF-295 = assay: NCI SRB screen, SF-295; conditions: Homo sapiens, SF-295, 48 h, read-out: GI50 values
A549/ATCC = assay: NCI SRB screen, A549/ATCC; conditions: Homo sapiens, A549, 48 h, read-out: GI50 values
U251 = assay: NCI SRB screen, U251; conditions: Homo sapiens, U-251, 48 h, read-out: GI50 values

SMILES | GI50 (PC-3) [µM] | GI50 (HL-60(TB)) [µM] | GI50 (COLO-205) [µM] | GI50 (Leukemia cell lines) [µM] | GI50 (T-47D) [µM] | GI50 (NCI-H522) [µM] | GI50 (HT29) [µM] | GI50 (OVCAR-4) [µM] | GI50 (CCRF-CEM) [µM] | GI50 (SR) [µM] | GI50 (TK-10) [µM] | GI50 (SF-268) [µM] | GI50 (A498) [µM] | GI50 (MDA-MB-435) [µM] | GI50 (Breast Cancer cell lines) [µM] | GI50 (UO-31) [µM] | GI50 (NCI-H460) [µM] | GI50 (MALME-3M) [µM] | GI50 (786-0) [µM] | GI50 (MDA-MB-231/ATCC) [µM] | also measured
COc1cc(-c2cc(-c3nc4cc(Cl)ccc4[nH]3)[nH]n2)cc(OC)c1OC [8f, 5-chloro-2-(3-(3,4,5-trimethoxyphenyl)-1H-pyrazol-5-yl)-1H-benzo[d]imidazole] | 2.47 | 2.49 | 3.18 | 2.45 | 1.58 | 1.9 | 4.14 | 1.38 | 2.48 | 3.32 | 3.52 | 3.6 | 2.1 | 3.3 | 2.57 | 2.64 | 3.65 | 2.58 | 5.32 | 3.94 | GI50 [1]: 3.55 µM; GI50 (RPMI-8226): 1.65 µM; GI50 (SK-OV-3): 4.47 µM; GI50 (SK-MEL-28): 2.42 µM; GI50 (NCIH322M): 3.65 µM; GI50 (OVCAR-3): 3.5 µM; GI50 (RXF 393): 3.26 µM; GI50 (HCT-15): 2.9 µM; GI50 [2]: 2.75 µM; GI50 (SN12C): 3.06 µM; GI50 (SF-295): 2.35 µM; GI50 (A549/ATCC): 2.96 µM; GI50 (U251): 3.38 µM
COc1cc(-c2cc(-c3nc4cc(Cl)c(Cl)cc4[nH]3)[nH]n2)cc(OC)c1OC [10f, 5,6-dichloro-2-(3-(3,4,5-trimethoxyphenyl)-1H-pyrazol-5-yl)-1H-benzo[d]imidazole] | 2.2 | 3.34 | 3.77 | 2.75 | 1.87 | 2.02 | 3.42 | 2.21 | 2.35 | 3.89 | 4.61 | 3.95 | 4.21 | 3.78 | 3.16 | 2.47 | 3.33 | 2.7 | 4.09 | 4.14 | GI50 [1]: 4.47 µM; GI50 (RPMI-8226): 1.75 µM; GI50 (SK-OV-3): 1.73 µM; GI50 (SK-MEL-28): 3.07 µM; GI50 (NCIH322M): 3.29 µM; GI50 (OVCAR-3): 4.05 µM; GI50 (RXF 393): 3.17 µM; GI50 (HCT-15): 2.89 µM; GI50 [2]: 2.95 µM; GI50 (SN12C): 3.05 µM; GI50 (SF-295): 3.04 µM; GI50 (A549/ATCC): 2.87 µM; GI50 (U251): 2.97 µM
